Test results published in article PMC7701510, “Identification of HN252 as a potent inhibitor of protein phosphatase PPM1B” (Journal of Cellular and Molecular Medicine, 2020).
Changes are numbered by the printed parent chain.

Assays:
Assay type in all cases: biochemical
[1] = target: T1, PPM1B-R33K (Homo sapiens, UniProt O75688, R33K); assay: pNPP hydrolysis assay with PPM1B mutant; conditions: pNPP substrate, pH 7.0, 37°C
T1 construct: inferred from pET-28a vector and Ni-NTA purification; made in house; host or cells: Escherichia coli BL21
T1 sequence (O75688 1-479 R33K): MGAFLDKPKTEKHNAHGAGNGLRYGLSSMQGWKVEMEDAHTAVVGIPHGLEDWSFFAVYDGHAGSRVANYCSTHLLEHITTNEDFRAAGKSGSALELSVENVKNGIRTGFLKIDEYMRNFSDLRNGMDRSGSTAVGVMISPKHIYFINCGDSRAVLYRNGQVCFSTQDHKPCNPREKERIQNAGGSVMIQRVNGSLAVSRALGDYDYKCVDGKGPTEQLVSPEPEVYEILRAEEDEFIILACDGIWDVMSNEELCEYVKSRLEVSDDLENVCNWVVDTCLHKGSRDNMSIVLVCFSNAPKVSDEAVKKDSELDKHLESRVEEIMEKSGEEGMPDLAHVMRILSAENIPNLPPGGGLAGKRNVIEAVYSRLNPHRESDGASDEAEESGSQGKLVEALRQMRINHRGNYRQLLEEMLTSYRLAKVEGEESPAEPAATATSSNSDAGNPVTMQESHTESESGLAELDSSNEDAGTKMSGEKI
Procedure: (§1) Escherichia coli BL21 strain was transformed with pET‐28a bacterial expression vector harbouring PPM1B and its mutants. ^17 The fusion proteins were induced to be expressed with 0.5 mM isopropyl‐β‐D‐thiogalactoside (IPTG) and purified from bacterial lysate by Ni‐NTA chromatographic matrices (Qiagen) and AKTA FPLC (GE Healthcare Life Sciences) using a Superdex Increase 200 column.
(§2) The kinetic assays of PPM1B were carried out at 37°C in 0.1 M acetic acid buffer (50 mM Tris, 40 mM Mn^2+, pH 7.0). The p‐nitrophenyl phosphate (pNPP, Sigma) was used as the substrate which could be conveniently measured at 405 nm. Reactions were started by addition of pNPP to a reaction mixture containing PPM1B (0.4 μM PPM1B, final concentration) and various concentrations of HN252 and stopped by addition of 0.5 M EDTA (pH 10.0) after an appropriate time. The Km value of PPM1B towards pNPP hydrolysis (3.6 mM for pNPP) was used to determine the IC50. The IC50 values, the inhibition constant Ki and inhibition pattern were evaluated as previously described. ^18 The kinetic assays of HN252 towards to other protein phosphatases were carried out as previously described. ^19

[2] = target: T2, PPM1B-K170A (Homo sapiens, UniProt O75688, K170A); assay: pNPP hydrolysis assay with PPM1B mutant; conditions: pNPP substrate, pH 7.0, 37°C
T2 construct: inferred from pET-28a vector and Ni-NTA purification; made in house; host or cells: Escherichia coli BL21
T2 sequence (O75688 1-479 K170A): T1 sequence (O75688 1-479 R33K) with K33R, K170A
Procedure: as §1, §2

[3] = target: T3, SSH2 (Homo sapiens, UniProt Q76I76); assay: pNPP hydrolysis phosphatase assay (selectivity panel); conditions: pNPP as substrate
T3 sequence (Q76I76 1-1423): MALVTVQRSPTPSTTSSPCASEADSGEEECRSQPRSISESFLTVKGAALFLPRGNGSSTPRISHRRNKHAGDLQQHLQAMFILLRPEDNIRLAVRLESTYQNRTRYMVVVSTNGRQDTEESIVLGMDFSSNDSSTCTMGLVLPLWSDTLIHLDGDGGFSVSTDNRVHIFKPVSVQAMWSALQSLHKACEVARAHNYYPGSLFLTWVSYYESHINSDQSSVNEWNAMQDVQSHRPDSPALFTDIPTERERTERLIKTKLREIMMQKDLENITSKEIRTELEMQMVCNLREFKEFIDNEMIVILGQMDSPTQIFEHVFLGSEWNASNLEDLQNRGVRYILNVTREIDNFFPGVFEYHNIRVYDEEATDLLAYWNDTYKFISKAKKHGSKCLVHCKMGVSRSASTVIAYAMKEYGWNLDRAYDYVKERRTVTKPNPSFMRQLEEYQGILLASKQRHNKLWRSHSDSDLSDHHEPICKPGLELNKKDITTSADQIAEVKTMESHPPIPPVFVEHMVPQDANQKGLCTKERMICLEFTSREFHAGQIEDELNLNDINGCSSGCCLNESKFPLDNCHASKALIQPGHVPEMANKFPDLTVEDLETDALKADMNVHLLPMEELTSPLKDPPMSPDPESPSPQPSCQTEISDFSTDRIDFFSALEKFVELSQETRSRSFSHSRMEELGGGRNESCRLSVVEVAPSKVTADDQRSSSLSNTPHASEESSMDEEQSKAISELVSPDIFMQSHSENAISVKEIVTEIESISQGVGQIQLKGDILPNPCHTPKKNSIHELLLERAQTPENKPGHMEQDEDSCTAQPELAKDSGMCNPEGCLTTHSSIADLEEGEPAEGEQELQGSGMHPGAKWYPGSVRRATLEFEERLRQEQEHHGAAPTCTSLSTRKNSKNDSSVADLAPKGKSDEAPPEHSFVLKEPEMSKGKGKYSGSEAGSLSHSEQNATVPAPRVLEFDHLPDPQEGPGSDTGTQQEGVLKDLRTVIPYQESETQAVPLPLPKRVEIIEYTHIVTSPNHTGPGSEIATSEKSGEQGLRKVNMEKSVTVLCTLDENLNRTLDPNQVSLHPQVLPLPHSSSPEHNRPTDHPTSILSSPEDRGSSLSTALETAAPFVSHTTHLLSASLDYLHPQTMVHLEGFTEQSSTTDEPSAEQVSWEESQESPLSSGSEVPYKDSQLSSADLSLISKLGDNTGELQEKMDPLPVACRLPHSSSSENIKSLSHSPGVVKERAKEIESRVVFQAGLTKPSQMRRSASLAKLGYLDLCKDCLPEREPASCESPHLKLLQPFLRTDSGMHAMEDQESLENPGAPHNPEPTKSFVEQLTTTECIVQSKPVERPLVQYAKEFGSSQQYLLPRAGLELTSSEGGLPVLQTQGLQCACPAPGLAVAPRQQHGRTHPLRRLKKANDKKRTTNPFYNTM

Nc1cc(-c2ccc(-c3ccc(O)c(O)c3)cc2)ccc1C(=O)O [HN252]
IC50 [1]: 58.6 ± 10 µM | IC50 [2]: 30.1 ± 5.7 µM | IC50 [3]: 55.1 ± 2.88 µM
